{"source": "patent US11026901B2", "about": "“Treatment or prevention of cardiovascular events via the administration of a colchicine derivative” (Murray and Poole Enterprises, LTD., priority 2012, dated 2021)", "test_system": "patients with angiographically proven, clinically stable coronary disease", "assay": "LoDoCo trial: cardiovascular events with colchicine 0.5 mg/day added to standard secondary prevention therapy", "format": "in vivo, human", "protocol": "We employed a PROBE [Prospective Randomized, Open, Blinded End-point] design\nAll patients signed informed consent before randomization.\nAll other treatments were continued as usual.\nThe secondary outcomes were analysed similarly.", "key": {"[1]": {"details": "intention-to-treat, in each group"}, "[2]": {"details": "intention-to-treat, treatment [n = 282] vs control [n = 250]"}, "[3]": {"details": "on-treatment analysis, treatment [n = 243] vs control [n = 250]"}}, "data": [{"smiles": "COc1cc2c(c(OC)c1OC)-c1ccc(OC)c(=O)cc1[C@@H](NC(C)=O)CC2", "note": "[colchicine]", "values": [{"measurement": "risk of a cardiovascular event, including an ACS, out of hospital cardiac arrest and non-cardio-embolic ischemic stroke", "setting": "colchicine 0.5 mg/day added to standard therapy, stable coronary disease", "value": "significantly reduces"}, {"measurement": "patients who died", "setting": "colchicine group (ten in the control group)", "value": 4, "unit": "patients"}, {"measurement": "Primary Outcome (composite ACS, out of hospital cardiac arrest or non-cardio-embolic ischemic stroke), patients with event", "setting": "intention-to-treat, colchicine 0.5 mg/day [n = 282], median follow up 36 months", "value": 15, "unit": "n"}, {"measurement": "number needed to treat, primary outcome", "setting": "intention-to-treat, colchicine 0.5 mg/day vs control", "value": 11}, {"measurement": "stent related ACS with evidence of acute stent thrombosis, patients", "setting": "[1]", "value": 2}, {"measurement": "stent related ACS with evidence of significant in-stent stenosis, patients", "setting": "[1]", "value": 2}, {"measurement": "Acute Coronary Syndrome, HR; 95% CI", "setting": "[2]", "value": 0.33}, {"measurement": "Non-Stent Related ACS, HR; 95% CI", "setting": "[2]", "value": 0.26}, {"measurement": "Non-Stent Related AMI, HR; 95% CI", "setting": "[2]", "value": 0.25}, {"measurement": "Non-Stent Related UA, HR; 95% CI", "setting": "[2]", "value": 0.27}, {"measurement": "Primary Outcome, HR 95% CI", "setting": "intention-to-treat, treatment [n = 282] vs control [n = 250], cox proportional hazards", "value": 0.33}, {"measurement": "Primary Outcome, patients with event", "setting": "on-treatment analysis (tolerant and compliant beyond first month), colchicine 0.5 mg/day [n = 243]", "value": 11, "unit": "n"}, {"measurement": "Acute Coronary Syndrome, HR; 95% CI", "setting": "[3]", "value": "0.28 (0.13, 0.58)"}, {"measurement": "Non-Cardio-Embolic Stroke, HR; 95% CI", "setting": "[3]", "value": "0.27 (0.03, 2.42)"}, {"measurement": "Non-Stent Related ACS, HR; 95% CI", "setting": "[3]", "value": "0.21 (0.09, 0.50)"}, {"measurement": "Non-Stent Related AMI, HR; 95% CI", "setting": "[3]", "value": "0.30 (0.10, 0.91)"}, {"measurement": "Non-Stent Related UA, HR; 95% CI", "setting": "[3]", "value": "0.13 (0.03, 0.57)"}, {"measurement": "OOH Cardiac Arrest, HR; 95% CI", "setting": "[3]", "value": "0.55 (0.05, 6.03)"}]}]}
